Results published in patent US9056851B2, “Thiolactone antibiotics” (priority 2011, dated 2015).

Biological target: C171Q KasA acyl-enzyme mimic (Mycobacterium tuberculosis, UniProt P9WQD9, C171Q)
Assay type: binding, M. tuberculosis

Structure (SMILES): C=C/C(C)=C/[C@@]1(C)SC(=O)C=C1O [TLM2, 5R-(+)-3-Demethylthiolactomycin]
- Slow Onset: No
- Slow or Rapid onset of binding to C171QKasA (words in Ki* column): Rapid

Structure (SMILES): C=C/C(C)=C/[C@@]1(C)SC(=O)C(CC)=C1O [TLM3, 5R-(+)-3-Ethylthiolactomycin]
- Slow Onset: Yes
- Slow or Rapid onset of binding to C171QKasA (words in Ki* column): Slow,

Structure (SMILES): C=C/C(C)=C/[C@@]1(C)SC(=O)C(CCC)=C1O [TLM4, 5R-(+)-3-Propylthiolactomycin]
- Slow Onset: Yes
- Slow or Rapid onset of binding to C171QKasA (words in Ki* column): Slow,

Structure (SMILES): C=C/C(C)=C/[C@@]1(C)SC(=O)C(CCc2ccc(C)cc2)=C1O [TLM5]
- Slow Onset: No
- Slow or Rapid onset of binding to C171QKasA (words in Ki* column): Rapid

Structure (SMILES): C=C/C(C)=C/[C@@]1(C)SC(=O)C(CCCCc2ccc(F)cc2)=C1O [TLM6]
- Slow Onset: No
- Slow or Rapid onset of binding to C171QKasA (words in Ki* column): Rapid

Structure (SMILES): C=C/C(C)=C/[C@@]1(C)SC(=O)C(CCCCc2ccc(Cl)cc2)=C1O [TLM7]
- Slow Onset: No
- Slow or Rapid onset of binding to C171QKasA (words in Ki* column): Rapid

Structure (SMILES): C=C/C(C)=C/[C@@]1(C)SC(=O)C(CCCCc2ccc(Br)cc2)=C1O [TLM8]
- Slow Onset: No
- Slow or Rapid onset of binding to C171QKasA (words in Ki* column): Rapid

Structure (SMILES): C=C/C(C)=C/[C@@]1(C)SC(=O)C(CCCCc2ccc(-c3ccccc3)cc2)=C1O [TLM9]
- Slow Onset: No
- Slow or Rapid onset of binding to C171QKasA (words in Ki* column): Rapid

Structure (SMILES): C=C/C(C)=C/[C@@]1(C)SC(=O)C(CCCN=[N+]=[N-])=C1O [TLM10]
- Slow Onset: Yes
- Slow or Rapid onset of binding to C171QKasA (words in Ki* column): Slow Onset

Structure (SMILES): C=C/C(C)=C/[C@@]1(C)SC(=O)C(CCc2ccc(Cl)cc2)=C1O [TLM31]
- Slow Onset: No

Structure (SMILES): C=C/C(C)=C/[C@@]1(C)SC(=O)C(CCCCN=[N+]=[N-])=C1O [TLM32]
- Slow Onset: Yes

Structure (SMILES): C=C/C(C)=C/[C@@]1(C)SC(=O)C(CCCCn2cc(CNC(=O)[C@H](O)C(C)(C)CO)nn2)=C1O [TLM33]
- Slow Onset: No

Structure (SMILES): C=C/C(C)=C/[C@@]1(C)SC(=O)C(CCCCn2cc(CNC(=O)c3ccc(NS(=O)(=O)c4ccc(F)cc4)cc3)nn2)=C1O [TLM34]
- Slow Onset: No

Structure (SMILES): C=C/C(C)=C/[C@@]1(C)SC(=O)C(C(C)=O)=C1O [TLM35]
- Slow Onset: Yes

Structure (SMILES): C=C/C(C)=C/[C@@]1(C)SC(=O)C(C(=O)C(F)(F)F)=C1O [TLM36]
- Slow Onset: Yes

Structure (SMILES): C=C/C(C)=C/[C@@]1(C)SC(=O)C(C(=O)OC)=C1O [TLM37]
- Slow Onset: No

Structure (SMILES): C=C/C(C)=C/[C@@]1(C)SC(=O)C(C(=O)CCC)=C1O [TLM38]
- Slow Onset: No

Structure (SMILES): C=C/C(C)=C/[C@@]1(C)SC(=O)C(C(=O)c2ccccc2C(=O)O)=C1O [TLM39]
- Slow Onset: No

Structure (SMILES): C=C/C(C)=C/[C@@]1(C)SC(=O)C=C1OCC(=O)NCCN=[N+]=[N-] [TLM40]
- Slow Onset: No

Structure (SMILES): C=C/C(C)=C/[C@@]1(C)SC(=O)C(C(=O)CCCCCCCCCCCCCCC)=C1O [TLM43]
- Slow Onset: No

Structure (SMILES): C=C/C(C)=C/[C@@]1(C)SC(=O)C(C(=O)CCCCc2ccc(-c3ccccc3)cc2)=C1O [TLM45]
- Slow Onset: No

Structure (SMILES): C=C/C(C)=C/[C@@]1(C)SC(=O)C(C)=C1O [TLM, 5R-(+)-Thiolactomycin]
- Slow Onset: Yes
- Slow or Rapid onset of binding to C171QKasA (words in Ki* column): Slow,
